Assay results reported in US9932637B2, “Genetic polymorphisms associated with cardiovascular disorders and drug response, methods of detection and uses thereof” (CELERA CORPORATION, priority 2003, dated 2018).
Values joined by “and” are separate entries in the source; they are usually repeats but may differ in a detail not shown here. Equal entries are not always repeated.

Test system: patients with prior myocardial infarction (CARE study)
Experiment: CARE aligned analysis (prospective and case/control design, white males): association of genotypes with pravastatin efficacy (Tables 13, 15)
Format: in vivo, human
Experimental: The data presented in Table 8 based on an association of genotypes with pravastatin efficacy of the CARE samples were further analyzed and presented in Table 13. The further analysis was performed to align the data obtained from the analysis of the CARE samples, which was a prospective study, to the analysis of the WOSCOP samples, which was a case/control study. Table 13 also presents an analysis of the association of genotypes with pravastatin efficacy in the WOSCOPs samples. Relative to the analysis performed on the data presented in Table 8, there are two significant differences to determine if the SNP influenced pravastatin efficacy. Data obtained from the CARE samples were separated by study design into two groups, those in the prospective study design group and those in the case/control study design group. The original care study contained 16 protocol defined cardiovascular disease defined endpoints and 150 other phenotypes. […] The control groups used to compare the data were also divided into two groups, the “all possible” control group and the “cleaner” control group. […] Because the participants in the WOSCOPs trial were all white males, only data obtained from white males in the CARE study were analysed. Data from the “all possible” and “cleaner” controls were compared to data obtained from the cases in the prospective study design while only data from “cleaner” controls were compared to cases in the case/control study design. The data from the case/control cohorts were analysed using conditional logistic regression (as opposed to logistic regression used for the original anaylsis).
The anaylsis was refined as described for both Tables 13 and 14.

[1] = A2M hCV517658, CARE Case/Control, F&NF MI
[2] = ABCA1 hCV2741051, CARE Case/Control, F&NF MI
[3] = ABCA1 hCV2741051, CARE Prospective, F&NF MI
[4] = ABCA1 hCV2741083, CARE Prospective, F&NF MI
[5] = ADAM12 hCV25928135, CARE Case/Control, F&NF MI
[6] = AGTR1 hCV3187716, CARE, Case/Control, F MI/SD/NF MI
[7] = AGTR1 hCV3187716, CARE, Prospective, F MI/SD/NF MI
[8] = ALOX12 hCV1552894, CARE Prospective, F&NF MI
[9] = ALOX12 hCV1552900, CARE Prospective, F&NF MI
[10] = ASAH1 hCV2442143, CARE, Prospective, F MI/SD/NF MI
[11] = C14orf159 hCV25472345, CARE Case/Control, F&NF MI
[12] = C14orf159 hCV25472345, CARE Prospective, F&NF MI
[13] = CAPG hCV15851292, CARE, Case/Control, F MI/SD/NF MI
[14] = CAPN10 hCV25614016, CARE, Case/Control, F MI/SD/NF MI, listed as Pravastatin
[15] = CAPN10 hCV25614016, CARE, Prospective, F MI/SD/NF MI

## CC[C@H](C)C(=O)O[C@H]1C[C@H](O)C=C2C=C[C@H](C)[C@H](CC[C@@H](O)C[C@@H](O)CC(=O)O)[C@H]21 [pravastatin]
[1]
  2 Rare Alleles (%), Pravastatin Patients: (7.6%)
  2 Rare Alleles n/total, Pravastatin Patients: 11/144 and 11/101
  Pravastatin vs placebo odds ratio, 0 rare alleles: 0.55 and 0.53
  Pravastatin vs placebo odds ratio, 1 rare allele: 1.04 and 0.93
  Pravastatin vs placebo odds ratio, 2 rare alleles: 0.47 and 0.38
[2]
  2 Rare Alleles n/total, Pravastatin Patients: 12/93 and 12/64
  Pravastatin vs placebo odds ratio, 0 rare alleles: 0.55 and 0.52
  Pravastatin vs placebo odds ratio, 1 rare allele: 0.98 and 0.82
  Pravastatin vs placebo odds ratio, 2 rare alleles: 1.71 and 1.81
[3]
  2 Rare Alleles n/total, Pravastatin Patients: 12/94 and 12/65
  Pravastatin vs placebo odds ratio, 0 rare alleles: 0.55 and 0.52
  Pravastatin vs placebo odds ratio, 1 rare allele: 0.99 and 0.83
  Pravastatin vs placebo odds ratio, 2 rare alleles: 1.80 and 1.81
ABCA1 hCV2741083, CARE Case/Control, F&NF MI
  2 Rare Alleles n/total, Pravastatin Patients: 4/22 and 4/18
[4]
  2 Rare Alleles n/total, Pravastatin Patients: 4/23 and 4/19
  Pravastatin vs placebo odds ratio, 0 rare alleles: 0.63
  Pravastatin vs placebo odds ratio, 1 rare allele: 1.52
  Pravastatin vs placebo odds ratio, 2 rare alleles: 2.74
ABCA1 hCV2741083, Patients with 0 Rare Alleles, CARE Case/Control, F MI/SD/NF MI
  Pravastatin vs. Placebo Odds Ratio: 0.60
ABCA1 hCV2741083, Patients with 0 Rare Alleles, CARE Prospective, F MI/SD/NF MI
  Pravastatin vs. Placebo Odds Ratio: 0.59
ABCA1 hCV2741083, Patients with 1 Rare Allele, CARE Case/Control, F MI/SD/NF MI
  Pravastatin vs. Placebo Odds Ratio: 1.53
ABCA1 hCV2741083, Patients with 1 Rare Allele, CARE Prospective, F MI/SD/NF MI
  Pravastatin vs. Placebo Odds Ratio: 1.61
ABCA1 hCV2741083, Patients with 2 Rare Alleles, CARE Case/Control, F MI/SD/NF MI
  Pravastatin vs. Placebo Odds Ratio: 0.71
ABCA1 hCV2741083, Patients with 2 Rare Alleles, CARE Prospective, F MI/SD/NF MI
  Pravastatin vs. Placebo Odds Ratio: 0.53
[5]
  2 Rare Alleles (%), Pravastatin Patients: (17.1%)
  2 Rare Alleles n/total, Pravastatin Patients: 7/58 and 7/41
  Pravastatin vs placebo odds ratio, 2 rare alleles: 0.47 and 0.37
ADAMTS1 hCV529706, Patients with 0 Rare Alleles, CARE Case/Control, F MI/SD/NF MI
  Pravastatin vs. Placebo Odds Ratio: 0.91
ADAMTS1 hCV529706, Patients with 1 Rare Allele, CARE Case/Control, F MI/SD/NF MI
  Pravastatin vs. Placebo Odds Ratio: 0.64
ADAMTS1 hCV529706, Patients with 2 Rare Alleles, CARE Case/Control, F MI/SD/NF MI
  Pravastatin vs. Placebo Odds Ratio: 0.20
ADAMTS1 hCV529710, Patients with 0 Rare Alleles, CARE Case/Control, F MI/SD/NF MI
  Pravastatin vs. Placebo Odds Ratio: 0.91
ADAMTS1 hCV529710, Patients with 1 Rare Allele, CARE Case/Control, F MI/SD/NF MI
  Pravastatin vs. Placebo Odds Ratio: 0.63
ADAMTS1 hCV529710, Patients with 2 Rare Alleles, CARE Case/Control, F MI/SD/NF MI
  Pravastatin vs. Placebo Odds Ratio: 0.20
[6]
  2 rare alleles n/total (%), pravastatin patients: (7.5%)
  Pravastatin vs placebo odds ratio, 0 rare alleles: 0.65
  Pravastatin vs placebo odds ratio, 1 rare allele: 1.03
  Pravastatin vs placebo odds ratio, 2 rare alleles: 0.26
[7]
  2 rare alleles n/total (%), pravastatin patients: (7.2%)
  Pravastatin vs placebo odds ratio, 0 rare alleles: 0.65
  Pravastatin vs placebo odds ratio, 1 rare allele: 1.02
  Pravastatin vs placebo odds ratio, 2 rare alleles: 0.23
AGTR1 hCV3187716, Patients with 0 Rare Alleles, CARE Prospective, F MI/SD/NF MI
  Pravastatin vs. Placebo Odds Ratio: 0.70
AGTR1 hCV3187716, Patients with 1 Rare Allele, CARE Prospective, F MI/SD/NF MI
  Pravastatin vs. Placebo Odds Ratio: 1.18
AGTR1 hCV3187716, Patients with 2 Rare Alleles, CARE Prospective, F MI/SD/NF MI
  Pravastatin vs. Placebo Odds Ratio: 0.27
[8]
  2 Rare Alleles (%), Pravastatin Patients: (7.6%)
  2 Rare Alleles n/total, Pravastatin Patients: 15/198
  Pravastatin vs placebo odds ratio, 2 rare alleles: 0.38
[9]
  2 Rare Alleles (%), Pravastatin Patients: (7.6%)
  2 Rare Alleles n/total, Pravastatin Patients: 15/198
  Pravastatin vs placebo odds ratio, 2 rare alleles: 0.38
[10]
  2 rare alleles n/total (%), pravastatin patients: (13.2%)
  Pravastatin vs placebo odds ratio, 0 rare alleles: 0.42
  Pravastatin vs placebo odds ratio, 1 rare allele: 0.78
  Pravastatin vs placebo odds ratio, 2 rare alleles: 1.16
[11]
  2 Rare Alleles (%), Pravastatin Patients: (5.0%)
  2 Rare Alleles n/total, Pravastatin Patients: 7/140
  Pravastatin vs placebo odds ratio, 2 rare alleles: 0.30
[12]
  2 Rare Alleles (%), Pravastatin Patients: (5.0%)
  2 Rare Alleles n/total, Pravastatin Patients: 7/140
  Pravastatin vs placebo odds ratio, 2 rare alleles: 0.30
[13]
  2 rare alleles n/total (%), pravastatin patients: (21.4%)
  Pravastatin vs placebo odds ratio, 0 rare alleles: 0.81
  Pravastatin vs placebo odds ratio, 1 rare allele: 0.37
  Pravastatin vs placebo odds ratio, 2 rare alleles: 5.35
CAPN10 hCV25614016, CARE, Case/Control, F MI/SD/NF MI
  Pravastatin vs placebo odds ratio, 2 rare alleles: 0.90
[14]
  Pravastatin vs placebo odds ratio, 0 rare alleles: 0.62 and 0.56
  Pravastatin vs placebo odds ratio, 1 rare allele: 1.58 and 1.43
  Pravastatin vs placebo odds ratio, 2 rare alleles: 1.07
[15]
  2 rare alleles n/total (%), pravastatin patients: (9.1%)
  Pravastatin vs placebo odds ratio, 0 rare alleles: 0.63 and 0.56
  Pravastatin vs placebo odds ratio, 1 rare allele: 1.60 and 1.42
